Measured values as given in patent publication US11597703B2, “Caspase inhibitors and methods of use thereof” (Histogen Inc., priority 2019, dated 2023).
Blank lines part the entries; values can stand above or below the compound they belong to.

Columns and labels:
Caspase-3 = molecular target: T1, Caspase-3 (Homo sapiens, UniProt P42574); assay: Caspase-3 enzymatic inhibition assay, IC50; format: biochemical; settings: read-out: Caspase 3 enzyme inhibition IC50
T1 construct: purchased Enzo Biosciences
T1 sequence (P42574 29-175 limits assumed): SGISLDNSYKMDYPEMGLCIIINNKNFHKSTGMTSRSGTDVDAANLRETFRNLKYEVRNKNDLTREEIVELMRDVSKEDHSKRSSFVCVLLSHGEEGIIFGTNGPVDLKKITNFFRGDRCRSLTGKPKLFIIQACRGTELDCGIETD
T1 sequence (P42574 176-277 limits assumed): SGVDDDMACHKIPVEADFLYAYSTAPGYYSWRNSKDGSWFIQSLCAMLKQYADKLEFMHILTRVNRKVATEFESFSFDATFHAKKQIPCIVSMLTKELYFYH
Procedure: (§1) Human caspases were purchased from Enzo Biosciences and used according to the manufacturer's instructions. An exemplary caspase assay, for Caspase-1, is provided below:
(§2) Enzymatic assays were conducted for Caspase-3, 6 and 7 activity according to the manufacture's instructions.

Caspase 7 = molecular target: T2, Caspase 7 (Homo sapiens, UniProt P55210); assay: Caspase 7 enzymatic inhibition assay, IC50; format: biochemical; settings: read-out: Caspase 7 enzyme inhibition IC50
T2 construct: purchased Enzo Biosciences
T2 sequence (P55210 24-198 limits assumed): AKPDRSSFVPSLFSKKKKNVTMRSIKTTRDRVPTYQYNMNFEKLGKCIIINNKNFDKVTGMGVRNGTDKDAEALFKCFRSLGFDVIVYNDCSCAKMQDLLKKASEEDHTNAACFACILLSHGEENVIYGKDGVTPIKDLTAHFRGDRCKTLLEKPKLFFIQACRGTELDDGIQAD
T2 sequence (P55210 207-303 limits assumed): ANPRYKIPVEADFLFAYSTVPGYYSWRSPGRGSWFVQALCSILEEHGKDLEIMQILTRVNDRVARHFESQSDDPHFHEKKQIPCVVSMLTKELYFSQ
Procedure: as §1, §2

Caspase 6 = molecular target: T3, Caspase 6 (Homo sapiens, UniProt P55212); assay: Caspase 6 enzymatic inhibition assay, IC50; format: biochemical; settings: read-out: Caspase 6 enzyme inhibition IC50
T3 construct: purchased Enzo Biosciences
T3 sequence (P55212 24-179 limits assumed): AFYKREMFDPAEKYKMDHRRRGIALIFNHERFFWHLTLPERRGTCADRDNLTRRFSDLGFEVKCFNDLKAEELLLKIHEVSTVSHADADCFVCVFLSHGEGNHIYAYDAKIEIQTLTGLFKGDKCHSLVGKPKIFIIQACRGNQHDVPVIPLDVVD
T3 sequence (P55212 194-293 limits assumed): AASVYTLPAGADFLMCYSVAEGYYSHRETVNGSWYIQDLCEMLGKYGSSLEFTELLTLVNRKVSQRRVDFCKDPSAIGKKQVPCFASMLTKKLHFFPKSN
Procedure: as §1, §2

Caspase-1 = molecular target: T4, Caspase-1 (Homo sapiens, UniProt P29466); assay: Caspase-1 enzyme inhibition assay (Ac-YVAD-pNA substrate), IC50; format: biochemical
T4 construct: purchased Enzo Biosciences
T4 sequence (P29466 120-297 limits assumed): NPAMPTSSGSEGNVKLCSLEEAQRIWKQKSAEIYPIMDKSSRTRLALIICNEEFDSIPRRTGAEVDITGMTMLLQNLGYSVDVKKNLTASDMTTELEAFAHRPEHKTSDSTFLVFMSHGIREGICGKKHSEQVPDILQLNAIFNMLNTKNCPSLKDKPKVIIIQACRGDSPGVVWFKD
T4 sequence (P29466 317-404 limits assumed): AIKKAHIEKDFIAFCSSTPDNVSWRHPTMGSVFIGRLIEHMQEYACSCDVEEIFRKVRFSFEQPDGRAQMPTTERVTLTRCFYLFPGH
Procedure: as §1
Caspase-1 was diluted to 10 U/μl in assay buffer consisting of 50 mM HEPES, pH 7.4, 100 mM NaCl, 0.1% CHAPS, 1 mM EDTA, 10% glycerol and 10 mM DTT.
45 μl of assay buffer was added into ½ volume microtiter plate. The plate was allowed to equilibrate to assay temperature. 5 μl of Caspase-1 (10 U/μl) was added to each appropriate well. Two 2 blank wells containing assay buffer alone without Caspase-1 were included on the plate.
The reaction was started by the addition of 50 μl Ac-YVAD-pNA substrate, for a final substrate concentration of 200 μM. The reaction was continuously monitored at 405 nm. The data was graphed as OD405 nm vs time, and the slope was determined over the linear portion of the curve. The rates in OD/min were converted to substrate/min using an extinction coefficient for p-nitroaniline of 10,500M-1 cm-1, and were adjusted for pathlength of sample. […]

[1] = Rodent model of ulcerative colitis induced by TNBS; format: in vivo, Sprague-Dawley rats
Procedure: Compounds of the present invention were tested by oral administration in a rodent model of ulcerative colitis (UC). Ulcerative colitis was induced in Sprague-Dawley rats by instillation of 48 mg/kg […], (TNBS), through the rectum. Testing included 4 active treatment groups and one vehicle control group.
Effect of TNBS-Induced UC in Vehicle Treated Control Group, (Group 1):
Rats were administered of 0.5% vehicle carboxy methylcellulose, (CMC), twice daily starting 24 hours after the instillation of TNBS.
At the termination of the study on DAY 7, the average colon weight in the diseased rats was 5.904±2.208 g, the average colon length was 11.0±1.4 cm and the average distal colon width was 3.1±1.0 cm. Severe adhesions involving multiple intestinal loops, severe stricture resulting in proximal colon distension, ulcers of 6.4±0.4 cm in length, and colonic wall thickness of 3.5±0.8 mm combined to yield an overall colonic score of 11.5±0.8 in the diseased rats. […] Subacute inflammation (sub/mucosal and transmural/serosal were graded separately) was characterized by infiltration and aggregation of neutrophils, eosinophils, lymphocytes, plasma cells, and macrophages. Mucosal necrosis was characterized by damage to, necrosis of, or complete loss of colonic glands. Erosions were characterized by coagulative necrosis or loss of surface epithelium superficial to the muscularis mucosae. Submucosal edema was characterized by expansion of the submucosa by clear space or pale eosinophilic fluid, variably accompanied by dilation of lymphatic vessels and similar edematous expansion of the lamina propria. Epithelial hyperplasia was characterized by elongation of colonic glands and increased numbers of epithelial mitotic figures.

[2] = 10 mg/kg once daily oral, starting 24 hours after TNBS
[3] = Group 2, prednisolone 10 mg/kg once daily oral, DAY 7

Structure (SMILES): C[C@H](NC(=O)C(=O)Nc1ccc(C(F)(F)F)cc1)C(=O)N[C@@H](CCC(=O)O)C(=O)COc1c(F)c(F)cc(F)c1F [Example 27, (S)-5-oxo-4-((S)-2-(2-oxo-2-((4-(trifluoromethyl)phenyl)amino)acetamido)propanamido)-6-(2,3,5,6-tetrafluorophenoxy) hexanoic acid]
IC50 (Caspase-3): ≥ 1000 nM
IC50 (Caspase 7): ≥ 1000 nM
IC50 (Caspase 6): ≥ 1000 nM
IC50 (Caspase-1): ≤ 10 nM

Structure (SMILES): C[C@H](NC(=O)C(=O)Nc1c(F)cccc1F)C(=O)N[C@@H](CCC(=O)OCc1ccccc1)C(=O)COc1c(F)c(F)cc(F)c1F [Example 28, benzyl(S)-4-((S)-2-(2-((2,6-difluorophenyl)amino)-2-oxoacetamido)propanamido)-5-oxo-6-(2,3,5,6-tetrafluorophenoxy)hexanoate]
IC50 (Caspase-3): ≥ 1000 nM
IC50 (Caspase 7): ≥ 1000 nM
IC50 (Caspase 6): ≥ 1000 nM
IC50 (Caspase-1): ≤ 10 nM

Structure (SMILES): C[C@H](NC(=O)C(=O)Nc1ccc(Cl)cn1)C(=O)N[C@@H](CCC(=O)O)C(=O)COc1c(F)c(F)cc(F)c1F [Example 29, (S)-4-((S)-2-(2-((5-chloropyridin-2-yl)amino)-2-oxoacetamido)propanamido)-5-oxo-6-(2,3,5,6-tetrafluorophenoxy)hexanoic acid]
IC50 (Caspase-3): ≥ 1000 nM
IC50 (Caspase 7): ≥ 1000 nM
IC50 (Caspase 6): ≥ 1000 nM
IC50 (Caspase-1): ≤ 10 nM

Structure (SMILES): CC(=O)c1ccc(NC(=O)C(=O)N[C@@H](C)C(=O)N[C@@H](CCC(=O)O)C(=O)COc2c(F)c(F)cc(F)c2F)cc1 [Example 30, (S)-4-((S)-2-(2-((4-acetylphenyl)amino)-2-oxoacetamido)propanamido)-5-oxo-6-(2,3,5,6-tetrafluorophenoxy)hexanoic acid]
IC50 (Caspase-3): ≥ 1000 nM
IC50 (Caspase 7): ≥ 1000 nM
IC50 (Caspase 6): ≥ 1000 nM
IC50 (Caspase-1): ≤ 10 nM

Structure (SMILES): C[C@H](NC(=O)C(=O)Nc1cccc(-c2nnn[nH]2)c1)C(=O)N[C@@H](CCC(=O)O)C(=O)COc1c(F)c(F)cc(F)c1F [Example 31, (S)-4-((S)-2-(2-((3-(1H-tetrazol-5-yl)phenyl)amino)-2-oxoacetamido)propanamido)-5-oxo-6-(2,3,5,6-tetrafluorophenoxy)hexanoic acid]
IC50 (Caspase-3): ≥ 1000 nM
IC50 (Caspase 7): ≥ 1000 nM
IC50 (Caspase 6): ≥ 1000 nM
IC50 (Caspase-1): ≤ 10 nM

Structure (SMILES): C[C@H](NC(=O)C(=O)Nc1ccccc1C#N)C(=O)N[C@@H](CCC(=O)O)C(=O)COc1c(F)c(F)cc(F)c1F [Example 32, (S)-4-((S)-2-(2-((2-cyanophenyl)amino)-2-oxoacetamido)propanamido)-5-oxo-6-(2,3,5,6-tetrafluorophenoxy)hexanoic acid]
IC50 (Caspase-3): ≥ 1000 nM
IC50 (Caspase 7): ≥ 1000 nM
IC50 (Caspase 6): ≥ 1000 nM
IC50 (Caspase-1): ≤ 10 nM

Structure (SMILES): C[C@]12C=CC(=O)C=C1CC[C@@H]1[C@@H]2[C@@H](O)C[C@@]2(C)[C@H]1CC[C@]2(O)C(=O)CO [Prednisolone, reference compound]
all measured colon parameters [1, 2]: significantly improved
animal health as reflected by body weight [1, 2]: improved animal health by DAY 4
average inhibition of the histological parameters [1, 2]: 40%
reduction in the overall colonic score [1, 2]: 67%
colon histology: Edema, Submucosal, Mean [1, 3]: 2.3
colon histology: Erosion/ Ulceration, Mean [1, 3]: 2.9
colon histology: Hyperplasia, Epithelial, Mean [1, 3]: 2.9
colon histology: Necrosis, Mucosal/ Gland Loss, Mean [1, 3]: 2.9
colon histology: SUM Score, Mean [1, 3]: 16.3
colon histology: Subacute Inflammation, Mucosal/ Submucosal, Mean [1, 3]: 3.5
colon histology: Subacute Inflammation, Transmural/ Serosal, Mean [1, 3]: 2.8
average animal weight, Mean ([1]; Group 2, prednisolone 10 mg/kg once daily oral, study day 0): 235 g
average animal weight, Mean ([1]; Group 2, prednisolone 10 mg/kg once daily oral, study day 1): 232 g
average animal weight, Mean ([1]; Group 2, prednisolone 10 mg/kg once daily oral, study day 2): 221 g
average animal weight, Mean ([1]; Group 2, prednisolone 10 mg/kg once daily oral, study day 3): 223 g
average animal weight, Mean ([1]; Group 2, prednisolone 10 mg/kg once daily oral, study day 4): 223 g
average animal weight, Mean ([1]; Group 2, prednisolone 10 mg/kg once daily oral, study day 5): 227 g
average animal weight, Mean ([1]; Group 2, prednisolone 10 mg/kg once daily oral, study day 6): 227 g
average animal weight, Mean ([1]; Group 2, prednisolone 10 mg/kg once daily oral, study day 7): 229 g
average animal weight, Mean ([1]; Group 2, prednisolone 10 mg/kg once daily oral, study day −1): 249 g
average animal weight, Mean ([1]; Group 2, prednisolone 10 mg/kg once daily oral, study day −5): 222 g

Results, then the compound that gave them:

IC50 (Caspase-3): ≥ 1000 nM
IC50 (Caspase 7): ≥ 1000 nM
IC50 (Caspase 6): ≥ 1000 nM
IC50 (Caspase-1): ≤ 10 nM
Structure (SMILES): Cc1ccccc1NC(=O)C(=O)N[C@@H](C)C(=O)N[C@@H](CCC(=O)O)C(=O)COc1c(F)c(F)cc(F)c1F [Example 21, (S)-4-((S)-2-(2-((2-methylphenyl)amino)-2-oxoacetamido)propanamido)-5-oxo-6-(2,3,5,6-tetrafluorophenoxy)hexanoic acid]

IC50 (Caspase-3): ≥ 1000 nM
IC50 (Caspase 7): ≥ 1000 nM
IC50 (Caspase 6): ≥ 1000 nM
IC50 (Caspase-1): ≤ 10 nM
Structure (SMILES): COc1ccccc1NC(=O)C(=O)N[C@@H](C)C(=O)N[C@@H](CCC(=O)O)C(=O)COc1c(F)c(F)cc(F)c1F [Example 22, (S)-4-((S)-2-(2-((2-methyoxyphenyl)amino)-2-oxoacetamido)propanamido)-5-oxo-6-(2,3,5,6-tetrafluorophenoxy)hexanoic acid]

IC50 (Caspase-3): ≥ 1000 nM
IC50 (Caspase 7): ≥ 1000 nM
IC50 (Caspase 6): ≥ 1000 nM
IC50 (Caspase-1): ≤ 10 nM
Structure (SMILES): COc1cccc(NC(=O)C(=O)N[C@@H](C)C(=O)N[C@@H](CCC(=O)O)C(=O)COc2c(F)c(F)cc(F)c2F)c1 [Example 23, (S)-4-((S)-2-(2-((3-methyoxyphenyl)amino)-2-oxoacetamido)propanamido)-5-oxo-6-(2,3,5,6-tetrafluorophenoxy)hexanoic acid]

IC50 (Caspase-3): ≥ 1000 nM
IC50 (Caspase 7): ≥ 1000 nM
IC50 (Caspase 6): ≥ 1000 nM
IC50 (Caspase-1): ≤ 10 nM
Structure (SMILES): COc1ccc(NC(=O)C(=O)N[C@@H](C)C(=O)N[C@@H](CCC(=O)O)C(=O)COc2c(F)c(F)cc(F)c2F)cc1 [Example 24, (S)-4-((S)-2-(2-((4-methyoxyphenyl)amino)-2-oxoacetamido)propanamido)-5-oxo-6-(2,3,5,6-tetrafluorophenoxy)hexanoic acid]

IC50 (Caspase-3): ≥ 1000 nM
IC50 (Caspase 7): ≥ 1000 nM
IC50 (Caspase 6): ≥ 1000 nM
IC50 (Caspase-1): ≤ 10 nM
Structure (SMILES): Cc1ccc(NC(=O)C(=O)N[C@@H](C)C(=O)N[C@@H](CCC(=O)O)C(=O)COc2c(F)c(F)cc(F)c2F)nc1 [Example 25]

IC50 (Caspase-3): ≥ 1000 nM
IC50 (Caspase 7): ≥ 1000 nM
IC50 (Caspase 6): ≥ 1000 nM
IC50 (Caspase-1): ≤ 10 nM
Structure (SMILES): C[C@H](NC(=O)C(=O)Nc1cccc(C(F)(F)F)c1)C(=O)N[C@@H](CCC(=O)O)C(=O)COc1c(F)c(F)cc(F)c1F [Example 26, (S)-5-oxo-4-((S)-2-(2-oxo-2-((3-(trifluoromethyl)phenyl)amino)acetamido)propanamido)-6-(2,3,5,6-tetrafluorophenoxy) hexanoic acid]
